Assay results published in patent publication US6861428B2, “Water-soluble phenylpyridazine compounds and compositions containing the same” (Kowa Co., Ltd., priority 2001, dated 2005).

Row | SMILES | melting point
1 | CC(C)Cn1nc(-c2ccc(F)c(F)c2)cc(CN2CCNCC2)c1=O.Cl.Cl | 182.5 to 186 °C
2 | CC(C)Cn1nc(-c2ccc(F)c(F)c2)cc(CN2CCN(C)CC2)c1=O.Cl.Cl | 242.5 to 243.4 °C
3 | Cc1cc(-c2cc(CN3CCNCC3)c(=O)n(Cc3ccccc3)n2)ccc1F.Cl.Cl | 162.7 to 180.7 °C (dec.)
4 | Cc1cc(-c2cc(CN3CCN(C)CC3)c(=O)n(Cc3ccccc3)n2)ccc1F.Cl.Cl | 240 to 242.5 °C (dec.)
5 | Cc1cc(-c2cc(CN(C)C)c(=O)n(Cc3ccccc3)n2)ccc1F.Cl | 225.3 to 226 °C
6 | Cc1cc(-c2cc(CN3CCNCC3)c(=O)n(CC=Cc3ccccc3)n2)ccc1F.Cl.Cl | 171.1 to 187.1 °C (dec.)
7 | Cc1cc(-c2cc(CN3CCN(C)CC3)c(=O)n(CC=Cc3ccccc3)n2)ccc1F.Cl.Cl | 236.1 to 237.1 °C
8 | Cc1cc(-c2cc(CN(C)C)c(=O)n(CC=Cc3ccccc3)n2)ccc1F.Cl | 183.6 to 184.5 °C
9 | Cc1cc(-c2cc(CN3CCNCC3)c(=O)n(CC=Cc3ccc(Cl)cc3)n2)ccc1F.Cl.Cl | 186.7 to 197 °C (dec.)
10 | Cc1cc(-c2nn(CC=Cc3ccc(Cl)cc3)c(=O)c(N(C)C)c2C)ccc1F.Cl | 201.3 to 201.9 °C
11 | CSc1ccc(-c2cc(CN3CCNCC3)c(=O)n(CC(C)C)n2)cc1.Cl.Cl | 248.5 to 253.7 °C (dec.)
12 | CN1CCN(Cc2cc(-c3ccc([S+](C)[O-])cc3)nn(CC3CC3)c2=O)CC1.Cl.Cl (stereo not shown) | 80 °C (dec.)
13 | Cc1c(-c2ccc([S+](C)[O-])cc2)nn(CC(C)C)c(=O)c1N1CCN(C)CC1.Cl.Cl (stereo not shown) | 224.5 to 229.1 °C (dec.)
14 | CC(C)Cn1nc(-c2ccc([S+](C)[O-])cc2)cc(CN(C)C)c1=O.Cl (stereo not shown) | 204.2 to 206 °C
15 | CN1CCN(Cc2cc(-c3ccc(S(C)(=O)=O)cc3)nn(CC3CC3)c2=O)CC1.Cl.Cl | 209 to 211.4 °C
16 | Cc1c(-c2ccc(S(C)(=O)=O)cc2)nn(CC2CC2)c(=O)c1N(C)C.Cl | 239.5 to 240.7 °C
17 | CC(C)Cn1nc(-c2ccc(S(C)(=O)=O)cc2)cc(CN2CCNCC2)c1=O.Cl.Cl | 222.4 to 224.2 °C
18 | CC(C)Cn1nc(-c2ccc(S(C)(=O)=O)cc2)cc(CN(C)C)c1=O.Cl | 221.4 to 223.3 °C
19 | Cc1ccc(-c2cc(CN3CCNCC3)c(=O)n(CC(C)C)n2)cc1F.Cl.Cl | 186.2 to 195 °C (dec.)
20 | Cc1cc(-c2cc(CN3CCN(C)CC3)c(=O)n(Cc3ccc(Cl)cc3)n2)ccc1F.Cl.Cl | 246.4 to 249.7 °C (dec.)
21 | Cc1cc(-c2cc(CN3CCN(C)CC3)c(=O)n(Cc3ccccc3Cl)n2)ccc1F.Cl.Cl | 191 to 202 °C (dec.)
22 | Cc1cc(-c2cc(CN)c(=O)n(Cc3ccccc3Cl)n2)ccc1F.Cl | 201.9 to 206.4 °C
23 | COc1ccc(-c2cc(CN3CCNCC3)c(=O)n(CC(C)C)n2)cc1F.Cl.Cl | 163 to 177 °C (dec.)
24 | COc1ccc(-c2cc(CN3CCN(C)CC3)c(=O)n(CC(C)C)n2)cc1F.Cl.Cl | 236.9 to 237 °C
25 | COc1ccc(-c2cc(CN(C)C)c(=O)n(CC(C)C)n2)cc1F.Cl | 212.4 to 212.8 °C

Row | SMILES | melting point
26 | Cc1c(-c2ccccc2)nn(CC(C)C)c(=O)c1N1CCNCC1.Cl.Cl | 154.3 to 159.5 °C
27 | Cc1c(-c2ccccc2)nn(CC(C)C)c(=O)c1N1CCN(C)CC1.Cl.Cl | 243.8 to 244.3 °C
28 | Cc1ccc(-c2cc(CN3CCN(C)CC3)c(=O)n(CC(C)C)n2)cc1F.Cl.Cl | 248.5 to 252 °C (dec.)
29 | CC(C)Cn1nc(-c2ccccc2)cc(CN(C)C)c1=O.Cl | 221.7 to 222.3 °C
30 | CC(C)Cn1nc(-c2ccc(C(F)(F)F)cc2)cc(CN2CCNCC2)c1=O.Cl.Cl | 210.8 to 212.5 °C
31 | Cc1c(-c2ccc(C(F)(F)F)cc2)nn(CC(C)C)c(=O)c1N1CCN(C)CC1.Cl.Cl | 249.9 to 252.8 °C
32 | CC(C)Cn1nc(-c2ccc(C(F)(F)F)cc2)cc(CN(C)C)c1=O.Cl | 242.2 to 242.3 °C
33 | CC(C)Cn1nc(-c2ccc(-c3ccccc3)cc2)cc(CN2CCNCC2)c1=O.Cl.Cl | 226.8 to 228 °C
34 | CC(C)Cn1nc(-c2ccc(-c3ccccc3)cc2)cc(CN2CCN(C)CC2)c1=O.Cl.Cl | 262.2 to 263.6 °C
35 | Cc1c(-c2ccc(-c3ccccc3)cc2)nn(CC(C)C)c(=O)c1N(C)C.Cl | 243.9 to 244.1 °C
36 | COc1ccc(-c2cc(CN3CCNCC3)c(=O)n(CC(C)C)n2)cc1Cl.Cl.Cl | 203.6 to 204.5 °C
37 | COc1ccc(-c2cc(CN3CCN(C)CC3)c(=O)n(CC(C)C)n2)cc1Cl.Cl.Cl | 235.8 to 236.7 °C
38 | COc1ccc(-c2cc(CN(C)C)c(=O)n(CC(C)C)n2)cc1Cl.Cl | 213.6 to 214.3 °C
39 | CNCc1cc(-c2ccc(OC)c(F)c2)nn(CC2CC2)c1=O | 169.1 to 170.7 °C
40 | COc1ccc(-c2cc(CN3CCNCC3)c(=O)n(CC3CC3)n2)cc1F [Example 20, 2-cyclopropylmethyl-6-(3-fluoro-4-methoxyphenyl)-4-(1-piperazinyl)methyl-2H-pyridazin-3-one] | 111.5 to 118 °C
41 | Cc1ccc(-c2cc(CN)c(=O)n(CC(C)C)n2)cc1 [Example 50, 4-aminomethyl-2-isobutyl-6-(4-methylphenyl)-2H-pyridazin-3-one] | 74.9 to 77.9 °C
42 | Cc1ccc(-c2nn(CC(C)C)c(=O)c(NC(CO)CO)c2C)cc1 [Example 52, 4-(1,3-dihydroxypropan-2-yl)amino-methyl-2-isobutyl-6-(4-methylphenyl)-2H-pyridazin-3-one] | 134.1 to 135.2 °C
43 | CSc1ccc(-c2nn(CC3CC3)c(=O)c(N(C)C)c2C)cc1.Cl [Example 153, 2-cyclopropylmethyl-4-dimethylamino-methyl-6-[4-(methylthio)phenyl]-2H-pyridazin-3-one hydrochloride] | 230.2 to 232.3 °C
44 | COc1ccc(-c2cc(CN(C)C)c(=O)n(Cc3ccc(F)cc3)n2)cc1F [Example 190, 4-dimethylaminomethyl-2-(4-fluorobenzyl)-6-(3-fluoro-4-methoxyphenyl)-2H-pyridazin-3-one] | 127 to 129 °C
45 | COc1ccc(-c2cc(CN)c(=O)n(Cc3ccc(F)cc3)n2)cc1F [Example 194, 4-aminomethyl-2-(4-fluorobenzyl)-6-(3-fluoro-4-methoxyphenyl)-2H-pyridazin-3-one] | 145 to 149 °C
46 | COc1ccc(-c2cc(CN(C)C)c(=O)n(CCCc3ccc(F)cc3)n2)cc1F [Example 197, 4-dimethylaminomethyl-6-(3-fluoro-4-methoxyphenyl)-2-[3-(4-fluorophenyl)propyl]-2H-pyridazin-3-one] | 97 to 100 °C
47 | COc1ccc(-c2cc(CN)c(=O)n(CCCc3ccc(F)cc3)n2)cc1F [Example 200, 4-aminomethyl-6-(3-fluoro-4-methoxyphenyl)-2-[3-(4-fluorophenyl)propyl]-2H-pyridazin-3-one] | 82 to 84 °C
48 | COc1ccc(-c2cc(CN(C)C)c(=O)n(Cc3ccc(Cl)cc3)n2)cc1F [Example 203, 2-(4-chlorobenzyl)-4-dimethylaminomethyl-6-(3-fluoro-4-methoxyphenyl)-2H-pyridazin-3-one] | 95.3 to 96.7 °C
49 | COc1ccc(-c2cc(CN)c(=O)n(Cc3ccc(Cl)cc3)n2)cc1F [Example 205, 4-aminomethyl-2-(4-chlorobenzyl)-6-(3-fluoro-4-methoxyphenyl)-2H-pyridazin-3-one] | 128.5 to 131.4 °C
